What is called IC50 is the concentration that gives 50% inhibition. Lower therefore signals greater potency in that assay.

From US20190322676A1, “CERAMIDE GALACTOSYLTRANSFERASE INHIBITORS FOR THE TREATMENT OF DISEASE” (BioMarin Pharmaceutical Inc., priority 2016, published 2019) come the findings set out here.

Structures can show the parent of a compound that is named as a salt.

This assay addresses T1, human CGT (ceramide galactosyltransferase), CHO/CGT lysate (Homo sapiens, UniProt Q16880).
T1 construct: Full-length human CGT cDNA was cloned into the BamH1/Xho1 site of pcDNA3.1 (+); expressed in transfected cells; host or cells: Chinese hamster ovary (CHO) cells; lysate prepared with M-PER
T1 sequence (Q16880 21-541): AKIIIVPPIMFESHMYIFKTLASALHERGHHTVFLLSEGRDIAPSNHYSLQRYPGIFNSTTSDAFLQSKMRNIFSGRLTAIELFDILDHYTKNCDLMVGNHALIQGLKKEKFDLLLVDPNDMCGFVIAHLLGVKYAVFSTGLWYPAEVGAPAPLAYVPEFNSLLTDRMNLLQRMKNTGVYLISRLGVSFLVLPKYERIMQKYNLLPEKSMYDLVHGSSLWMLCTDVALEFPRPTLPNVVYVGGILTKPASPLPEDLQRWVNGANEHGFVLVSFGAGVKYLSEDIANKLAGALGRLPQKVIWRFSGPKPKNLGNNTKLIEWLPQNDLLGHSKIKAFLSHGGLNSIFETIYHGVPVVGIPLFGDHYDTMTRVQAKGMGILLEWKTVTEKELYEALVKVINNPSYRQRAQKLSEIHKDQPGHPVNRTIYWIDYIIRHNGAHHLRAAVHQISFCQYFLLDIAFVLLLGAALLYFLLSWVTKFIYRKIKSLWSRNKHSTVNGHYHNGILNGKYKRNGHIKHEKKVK
As to the kind of experiment: CGT enzyme assay, RapidFire/MS/MS readout with 0.01% Tween added (Table 1 ranges with two asterisks **). The assay is classed as biochemical. As to conditions: CGT enzymatic assay; range with two asterisks (**): RapidFire/MS/MS method with 0.01% Tween added. An outline of the steps: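 Lysate (4 μg) of CHO cells transfected with full-length human CGT incubated 1 h at 37 °C with compound (0.001–50 μM) in pH 7.2 HEPES buffer with 10 μM C6-NBD-dihydro-ceramide, 17.5 μM UDP-galactose, Mg2+/Mn2+, CHAPS, BSA, 0.5% DMSO; ** set also contained 0.01% Tween 80. Product quantified by RapidFire/MS/MS, normalized to internal standard; IC50 from sigmoidal variable-slope fits.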
Regarding `NC1CC2CCC(C1)N2C(=O)[C@@H](NC(=O)C(=O)c1ccc2cc(OC3CCCC3)ccc2c1)C(F)(F)c1ccc2cc(Br)ccc2c1` (stereo partly drawn) [Compound 160-1, N-((2R)-3-(3-amino-8-azabicyclo[3.2.1]octan-8-yl)-1-(6-bromonaphthalen-2-yl)-1,1-difluoro-3-oxopropan-2-yl)-2-(6-(cyclopentyloxy)naphthalen-2-yl)-2-oxoacetamide trifluoroacetate], the IC50 lay in the range of 10 to 30 µM.

Consider `NC1CC2CCC(C1)N2C(=O)[C@H](NC(=O)C(=O)c1ccc2cc(OC3CCCC3)ccc2c1)C(F)(F)c1ccc2cc(Br)ccc2c1` (stereo partly drawn) [Compound 160-2, N-((2S)-3-(3-amino-8-azabicyclo[3.2.1]octan-8-yl)-1-(6-bromonaphthalen-2-yl)-1,1-difluoro-3-oxopropan-2-yl)-2-(6-(cyclopentyloxy)naphthalen-2-yl)-2-oxoacetamide trifluoroacetate], for which the 50% inhibitory concentration (IC50) lay within 30 to 100 µM.

`N[C@@H]1CCN(C(=O)[C@@H](NS(=O)(=O)c2ccc3cc(OC4CCCC4)ccc3c2)C(F)(F)c2ccc(-c3ccc(Cl)cc3)cc2)CC1(F)F` [Compound 161-1, N—((R)-3-((R)-4-amino-3,3-difluoropiperidin-1-yl)-1-(4′-chloro-[1,1′-biphenyl]-4-yl)-1,1-difluoro-3-oxopropan-2-yl)-6-(cyclopentyloxy)naphthalene-2-sulfonamide trifluoroacetate] displayed a 50% inhibitory concentration (IC50) of 1 to 10 µM.

`N[C@H]1CCN(C(=O)[C@H](NS(=O)(=O)c2ccc3cc(OC4CCCC4)ccc3c2)C(F)(F)c2ccc(-c3ccc(Cl)cc3)cc2)CC1(F)F` [Compound 161-2, N—((S)-3-((S)-4-amino-3,3-difluoropiperidin-1-yl)-1-(4′-chloro-[1,1′-biphenyl]-4-yl)-1,1-difluoro-3-oxopropan-2-yl)-6-(cyclopentyloxy) naphthalene-2-sulfonamide trifluoroacetate]: the concentration for half-maximal inhibition (IC50) fell in the range of 30 to 100 µM.

For `N[C@H]1CCN(C(=O)[C@@H](NS(=O)(=O)c2ccc3cc(OC4CCCC4)ccc3c2)C(F)(F)c2ccc(-c3ccc(Cl)cc3)cc2)CC1(F)F` [Compound 161-3, N—((R)-3-((S)-4-amino-3,3-difluoropiperidin-1-yl)-1-(4′-chloro-[1,1′-biphenyl]-4-yl)-1,1-difluoro-3-oxopropan-2-yl)-6-(cyclopentyloxy)naphthalene-2-sulfonamide trifluoroacetate], the half-maximal inhibitory concentration (IC50) was < 1 µM.

The compound `N[C@@H]1CCN(C(=O)[C@H](NS(=O)(=O)c2ccc3cc(OC4CCCC4)ccc3c2)C(F)(F)c2ccc(-c3ccc(Cl)cc3)cc2)CC1(F)F` [Compound 161-4, N—((S)-3-((R)-4-amino-3,3-difluoropiperidin-1-yl)-1-(4′-chloro-[1,1′-biphenyl]-4-yl)-1,1-difluoro-3-oxopropan-2-yl)-6-(cyclopentyloxy)naphthalene-2-sulfonamide trifluoroacetate] registered a 50% inhibitory concentration (IC50) of 1 to 10 µM.

The compound `NC1CCN(C(=O)[C@@H](NS(=O)(=O)c2ccc3cc(OC4CCCC4)ccc3c2)C(F)(F)c2ccc(-c3ccc(Cl)cc3)cn2)CC1` [Compound 162-1, (R)—N-(3-(4-aminopiperidin-1-yl)-1-(5-(4-chlorophenyl)pyridin-2-yl)-1,1-difluoro-3-oxopropan-2-yl)-6-(cyclopentyloxy)naphthalene-2-sulfonamide] returned a half-maximal inhibitory concentration (IC50) of 1 to 10 µM.

For `NC1CCN(C(=O)[C@H](NS(=O)(=O)c2ccc3cc(OC4CCCC4)ccc3c2)C(F)(F)c2ccc(-c3ccc(Cl)cc3)cn2)CC1` [Compound 162-2, (S)—N-(3-(4-aminopiperidin-1-yl)-1-(5-(4-chlorophenyl)pyridin-2-yl)-1,1-difluoro-3-oxopropan-2-yl)-6-(cyclopentyloxy)naphthalene-2-sulfonamide], the half-maximal inhibitory concentration (IC50) is 10 to 30 µM.

For `NC1CCN(C(=O)[C@@H](NS(=O)(=O)c2ccc(OCC3CCCCC3)cc2)C(F)(F)c2ccc(-c3ccc(Cl)cc3)cn2)CC1` [Compound 163-1, (R)—N-(3-(4-aminopiperidin-1-yl)-1-(5-(4-chlorophenyl)pyridin-2-yl)-1,1-difluoro-3-oxopropan-2-yl)-4-(cyclohexylmethoxy)benzenesulfonamide], the 50% inhibitory concentration (IC50) is 1 to 10 µM.

`NC1CCN(C(=O)[C@H](NS(=O)(=O)c2ccc(OCC3CCCCC3)cc2)C(F)(F)c2ccc(-c3ccc(Cl)cc3)cn2)CC1` [Compound 163-2, (S)—N-(3-(4-aminopiperidin-1-yl)-1-(5-(4-chlorophenyl)pyridin-2-yl)-1,1-difluoro-3-oxopropan-2-yl)-4-(cyclohexylmethoxy) benzenesulfonamide] displayed an IC50 of 30 to 100 µM.

Turning to `NC1CCN(C(=O)[C@@H](NS(=O)(=O)c2cc3ccc(OC4CCCC4)cc3s2)C(F)(F)c2ccc(-c3ccc(Cl)cc3)cc2)CC1` [Compound 164-1, (R)—N-(3-(4-aminopiperidin-1-yl)-1-(4′-chloro-[1,1′-biphenyl]-4-yl)-1,1-difluoro-3-oxopropan-2-yl)-6-(cyclopentyloxy)benzo[b]thiophene-2-sulfonamide], the IC50 was 1 to 10 µM.

`NC1CCN(C(=O)[C@H](NS(=O)(=O)c2cc3ccc(OC4CCCC4)cc3s2)C(F)(F)c2ccc(-c3ccc(Cl)cc3)cc2)CC1` [Compound 164-2, (S)—N-(3-(4-aminopiperidin-1-yl)-1-(4′-chloro-[1,1′-biphenyl]-4-yl)-1,1-difluoro-3-oxopropan-2-yl)-6-(cyclopentyloxy)benzo[b]thiophene-2-sulfonamide] showed a half-inhibitory concentration (IC50) of 1 to 10 µM.

`NC1CCN(C(=O)[C@H](NS(=O)(=O)c2ccc(COC3CCCCC3)s2)C(F)(F)c2ccc(-c3ccc(Cl)cc3)cc2)CC1` [Compound 165-1, (S)—N-(3-(4-aminopiperidin-1-yl)-1-(4′-chloro-[1,1′-biphenyl]-4-yl)-1,1-difluoro-3-oxopropan-2-yl)-5-((cyclohexyloxy)methyl)thiophene-2-sulfonamide trifluoroacetate]: the IC50 was 30 to 100 µM.

Regarding `NC1CCN(C(=O)[C@@H](NS(=O)(=O)c2ccc(COC3CCCCC3)s2)C(F)(F)c2ccc(-c3ccc(Cl)cc3)cc2)CC1` [Compound 165-2, (R)—N-(3-(4-aminopiperidin-1-yl)-1-(4′-chloro-[1,1′-biphenyl]-4-yl)-1,1-difluoro-3-oxopropan-2-yl)-5-((cyclohexyloxy)methyl)thiophene-2-sulfonamide trifluoroacetate], the IC50 was 30 to 100 µM.

`C=C(c1ccc(C(F)(F)[C@H](NS(=O)(=O)c2ccc3cc(OC4CCCC4)ccc3c2)C(=O)N2CCC(N)CC2)cc1)C(F)(F)F` [Compound 166-1, (R)—N-(3-(4-aminopiperidin-1-yl)-1,1-difluoro-3-oxo-1-(4-(3,3,3-trifluoroprop-1-en-2-yl)phenyl)propan-2-yl)-6-(cyclopentyloxy)naphthalene-2-sulfonamide] came in with a half-maximal inhibitory concentration (IC50) of 1 to 10 µM.

`C=C(c1ccc(C(F)(F)[C@@H](NS(=O)(=O)c2ccc3cc(OC4CCCC4)ccc3c2)C(=O)N2CCC(N)CC2)cc1)C(F)(F)F` [Compound 166-2, (S)—N-(3-(4-aminopiperidin-1-yl)-1,1-difluoro-3-oxo-1-(4-(3,3,3-trifluoroprop-1-en-2-yl)phenyl)propan-2-yl)-6-(cyclopentyloxy) naphthalene-2-sulfonamide] yielded a concentration for half-maximal inhibition (IC50) of 1 to 10 µM.

`NC1CC2CCC(C1)N2C(=O)[C@@H](NS(=O)(=O)c1cc2ccc(OC3CCCC3)cc2s1)C(F)(F)c1ccc(Br)cc1` (stereo partly drawn) [Compound 167-1, N-((2R)-3-(3-amino-8-azabicyclo[3.2.1]octan-8-yl)-1-(4-bromophenyl)-1,1-difluoro-3-oxopropan-2-yl)-6-(cyclopentyloxy)benzo[b]thiophene-2-sulfonamide trifluoroacetate] yielded an IC50 of 1 to 10 µM.

As to `NC1CC2CCC(C1)N2C(=O)[C@H](NS(=O)(=O)c1cc2ccc(OC3CCCC3)cc2s1)C(F)(F)c1ccc(Br)cc1` (some centres unmarked) [Compound 167-2, N-((2 S)-3-(3-amino-8-azabicyclo[3.2.1]octan-8-yl)-1-(4-bromophenyl)-1,1-difluoro-3-oxopropan-2-yl)-6-(cyclopentyloxy)benzo[b]thiophene-2-sulfonamide trifluoroacetate], the half-maximal inhibitory concentration (IC50) was 1 to 10 µM.

`NC1CCN(C(=O)[C@@H](NS(=O)(=O)c2ccc3cc(OC4CCCC4)ccc3c2)C(F)(F)c2ccc(Cl)c(OC3CC3)c2)CC1` [Compound 168-1, (R)—N-(3-(4-aminopiperidin-1-yl)-1-(4-chloro-3-cyclopropoxyphenyl)-1,1-difluoro-3-oxopropan-2-yl)-6-(cyclopentyloxy)naphthalene-2-sulfonamide trifluoroacetate] showed a half-maximal inhibitory concentration (IC50) of 1 to 10 µM.

`NC1CCN(C(=O)[C@H](NS(=O)(=O)c2ccc3cc(OC4CCCC4)ccc3c2)C(F)(F)c2ccc(Cl)c(OC3CC3)c2)CC1` [Compound 168-2, (S)—N-(3-(4-aminopiperidin-1-yl)-1-(4-chloro-3-cyclopropoxyphenyl)-1,1-difluoro-3-oxopropan-2-yl)-6-(cyclopentyloxy) naphthalene-2-sulfonamide trifluoroacetate]: the concentration for half-maximal inhibition (IC50) lay in the range of 10 to 30 µM.
